According to ChEMBL document CHEMBL3039007, “Structure-based identification of OATP1B1/3 inhibitors” (Mol Pharmacol, 2013):

Key:
[1] = target: T1, Solute carrier organic anion transporter family member 1B1 (Homo sapiens, UniProt Q9Y6L6); conditions: chinese hamster, cho, 10 µM
T1 sequence (Q9Y6L6 whole entry): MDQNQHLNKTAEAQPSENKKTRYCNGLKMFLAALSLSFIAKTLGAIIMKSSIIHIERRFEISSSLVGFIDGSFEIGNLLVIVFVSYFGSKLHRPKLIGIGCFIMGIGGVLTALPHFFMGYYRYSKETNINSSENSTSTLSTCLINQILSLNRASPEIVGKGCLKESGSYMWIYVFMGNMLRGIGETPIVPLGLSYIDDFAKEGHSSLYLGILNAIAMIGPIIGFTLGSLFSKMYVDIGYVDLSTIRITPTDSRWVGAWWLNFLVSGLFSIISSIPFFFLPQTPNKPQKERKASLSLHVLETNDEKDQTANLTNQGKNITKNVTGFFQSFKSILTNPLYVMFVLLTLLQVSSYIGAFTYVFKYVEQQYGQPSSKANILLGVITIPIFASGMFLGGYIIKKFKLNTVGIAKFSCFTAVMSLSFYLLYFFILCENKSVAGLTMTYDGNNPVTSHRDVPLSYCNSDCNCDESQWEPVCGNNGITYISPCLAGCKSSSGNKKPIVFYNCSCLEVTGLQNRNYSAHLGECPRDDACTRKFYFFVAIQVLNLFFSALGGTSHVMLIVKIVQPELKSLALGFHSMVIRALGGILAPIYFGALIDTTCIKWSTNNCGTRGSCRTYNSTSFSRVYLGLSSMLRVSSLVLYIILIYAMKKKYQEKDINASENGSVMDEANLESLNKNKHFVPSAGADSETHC

[2] = target: T2, Solute carrier organic anion transporter family member 1B3 (Homo sapiens, UniProt Q9NPD5); conditions: chinese hamster, cho, 10 µM
T2 sequence (Q9NPD5 whole entry): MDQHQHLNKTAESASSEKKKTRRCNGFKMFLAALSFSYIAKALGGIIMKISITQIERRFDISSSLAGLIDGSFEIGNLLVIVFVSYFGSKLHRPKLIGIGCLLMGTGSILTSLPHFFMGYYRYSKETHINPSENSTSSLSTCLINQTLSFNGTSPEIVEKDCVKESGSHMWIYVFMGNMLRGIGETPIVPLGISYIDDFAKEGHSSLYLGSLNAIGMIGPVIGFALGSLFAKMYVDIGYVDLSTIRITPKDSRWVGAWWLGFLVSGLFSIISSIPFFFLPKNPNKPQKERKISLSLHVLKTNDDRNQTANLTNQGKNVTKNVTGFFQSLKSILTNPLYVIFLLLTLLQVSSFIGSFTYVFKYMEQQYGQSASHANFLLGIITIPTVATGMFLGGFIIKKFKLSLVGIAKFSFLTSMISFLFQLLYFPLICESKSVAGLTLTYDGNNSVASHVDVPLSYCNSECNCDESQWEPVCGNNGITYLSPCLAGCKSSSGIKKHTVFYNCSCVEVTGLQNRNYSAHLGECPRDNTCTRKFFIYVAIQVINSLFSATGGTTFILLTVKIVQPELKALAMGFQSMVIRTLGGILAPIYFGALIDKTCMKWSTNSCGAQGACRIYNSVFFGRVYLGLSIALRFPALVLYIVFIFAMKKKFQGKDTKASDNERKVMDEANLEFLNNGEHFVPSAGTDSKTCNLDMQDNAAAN

SMILES	residual activity [1]	residual activity [2]
CC1(C)O[C@@H]2[C@@H](CO[C@@]3(COS(N)(=O)=O)OC(C)(C)O[C@@H]23)O1 [TOPIRAMATE]	93.31%	106.5%
Oc1ccc2c(c1)OC[C@]1(O)Cc3cc(O)c(O)cc3[C@H]21 [BRAZILIN]	117.2%	101.4%
C=C1CC/C=C(\C)CC[C@@H]2[C@@H]1CC2(C)C [BETA-CARYOPHYLLENE]	99.94%	88.67%
CCN(CC)CCOC(=O)C(c1ccccc1)C1CCCCC1.Cl (stereo not drawn) [DROFENINE HYDROCHLORIDE]	99.44%	112.3%
O=c1c(O)cc([C@H]2Oc3cc(O)cc(O)c3C[C@H]2O)cc2c([C@H]3Oc4cc(O)cc(O)c4C[C@H]3O)cc(O)c(O)c12 [THEAFLAVIN]	53%	75.27%
C=C1C([C@]2(C)C(CC(=O)OC)[C@@](C)(COC(C)=O)OC(=O)C[C@H]2OC(C)=O)[C@@H](OC=O)[C@@H](OC(=O)C(O)C(C)CC)[C@@]2(C)[C@H](c3ccoc3)CC(=O)C12O (stereo partly drawn)	28.24%	54.44%
CCC(N)C(O)c1ccc(O)c(O)c1.Cl (stereo not drawn) [ETHYLNOREPINEPHRINE HYDROCHLORIDE]	130.8%	104.2%
C[C@H](CCC(=O)O)[C@H]1CC[C@H]2[C@@H]3C(=O)C[C@@H]4CC(=O)CC[C@]4(C)[C@H]3CC(=O)[C@]12C [DEHYDROCHOLIC ACID]	80.16%	88.23%
CC(=O)c1ccc[nH]1 [2-ACETYLPYRROLE]	111.7%	98.29%
COc1cc(O)c2c(=O)cc(-c3ccc(OC)c(-c4c(O)cc(O)c5c(=O)cc(-c6ccc([O-])cc6)oc45)c3)oc2c1.[K+] [GINKGETIN, K salt]	46.45%	46.72%
Nc1ncn([C@@H]2O[C@H](CO)[C@@H](O)[C@H]2O)c(=O)n1 [AZACITIDINE]	108.4%	96.87%
CC(=O)Oc1ccc2c(c1OC(C)=O)OC[C@]1(O)Cc3c(cc(OC(C)=O)c(OC(C)=O)c3OC(C)=O)[C@H]21	101.4%	111.5%
N[C@@H](CSCSC[C@H](N)C(=O)O)C(=O)O	92.41%	96.92%
Oc1c(Cl)cc(Cl)c(Cl)c1Cc1c(O)c(Cl)cc(Cl)c1Cl [HEXACHLOROPHENE]	7.55%	3.11%
O=C1C=C2C(=CCOC2O)O1 (stereo not drawn) [PATULIN]	81.5%	79.09%
COC(=O)c1c(Cl)c(Cl)c(C(=O)OC)c(Cl)c1Cl [DACTHAL]	103.5%	106.6%

Other lines, results leading:

residual activity [1]	residual activity [2]	SMILES
82.48%	58.26%	CS(=O)(=O)Nc1ccc([N+](=O)[O-])cc1Oc1ccccc1 [NIMESULIDE]
81.19%	106.2%	CC(C)c1ccc2c(c1)CC[C@H]1[C@](C)(C(N)=O)CCC[C@]21C [DEHYDROABIETAMIDE]
83.15%	102.2%	COc1c2occc2c(OC)c2c(=O)cc(C)oc12 [KHELLIN]
101.1%	115.1%	CC(C)=CCc1c(O)cc(C)oc1=O [2-ISOPRENYL-3-HYDROXY-5-METHYL-a-PYRONE]
65.45%	105.4%	CC(=O)O[C@@H]1C[C@H]2C(C)(C)C(=O)C=C[C@]2(C)[C@H]2CC[C@@]3(C)[C@H](c4ccoc4)OC(=O)[C@H]4O[C@]43[C@@]21C [GEDUNIN]
126.8%	116.7%	O=c1oc2ccccc2cc1O [3-HYDROXYCOUMARIN]
65.05%	82.24%	O=c1c(O)cccc2cc(O)c(O)c(O)c12 [PURPUROGALLIN]
116.6%	97.83%	CC1(C)NC(=O)N(c2ccc([N+](=O)[O-])c(C(F)(F)F)c2)C1=O [NILUTAMIDE]
